From ChEMBL document CHEMBL1129863, “Synthesis and biological evaluation of 5,6-diarylimidazo[2.1-b]thiazole as selective COX-2 inhibitors” (Bioorg Med Chem Lett, 1997)

Columns and labels:
[1] = target: Prostaglandin G/H synthase 2 (Homo sapiens, UniProt P35354); assay: (§1) In vivo ability to inhibit cyclooxygenase-2 enzyme in human whole blood was determined; format: organism-based
[2] = target: T1, Prostaglandin G/H synthase 2 (Homo sapiens, UniProt P35354); assay: as §1; format: organism-based; remark: listed apart in the source
T1 sequence (P35354 whole entry): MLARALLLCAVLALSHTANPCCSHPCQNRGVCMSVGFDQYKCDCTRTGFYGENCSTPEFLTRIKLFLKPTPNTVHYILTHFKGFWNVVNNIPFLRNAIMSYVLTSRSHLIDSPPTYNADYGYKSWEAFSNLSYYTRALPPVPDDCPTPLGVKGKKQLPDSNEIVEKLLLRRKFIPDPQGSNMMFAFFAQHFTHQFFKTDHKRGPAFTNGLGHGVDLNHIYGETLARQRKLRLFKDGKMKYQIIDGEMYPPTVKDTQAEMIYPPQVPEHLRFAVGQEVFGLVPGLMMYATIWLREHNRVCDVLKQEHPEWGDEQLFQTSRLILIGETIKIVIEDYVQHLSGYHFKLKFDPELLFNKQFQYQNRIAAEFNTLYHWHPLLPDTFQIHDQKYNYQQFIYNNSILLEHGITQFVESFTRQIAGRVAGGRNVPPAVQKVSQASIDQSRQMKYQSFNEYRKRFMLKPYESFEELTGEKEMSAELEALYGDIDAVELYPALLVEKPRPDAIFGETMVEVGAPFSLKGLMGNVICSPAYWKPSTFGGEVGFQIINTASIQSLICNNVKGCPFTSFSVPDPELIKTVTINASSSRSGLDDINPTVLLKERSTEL

[3] = target: T1, Prostaglandin G/H synthase 2; format: cell-based, CHO
[4] = tested on: Rattus norvegicus; assay: Effective dose to inhibit carrageenan induced rat paw edema assay was determined; format: functional
[5] = target: T2, Prostaglandin G/H synthase 1 (Homo sapiens, UniProt P23219)
T2 sequence (P23219 whole entry): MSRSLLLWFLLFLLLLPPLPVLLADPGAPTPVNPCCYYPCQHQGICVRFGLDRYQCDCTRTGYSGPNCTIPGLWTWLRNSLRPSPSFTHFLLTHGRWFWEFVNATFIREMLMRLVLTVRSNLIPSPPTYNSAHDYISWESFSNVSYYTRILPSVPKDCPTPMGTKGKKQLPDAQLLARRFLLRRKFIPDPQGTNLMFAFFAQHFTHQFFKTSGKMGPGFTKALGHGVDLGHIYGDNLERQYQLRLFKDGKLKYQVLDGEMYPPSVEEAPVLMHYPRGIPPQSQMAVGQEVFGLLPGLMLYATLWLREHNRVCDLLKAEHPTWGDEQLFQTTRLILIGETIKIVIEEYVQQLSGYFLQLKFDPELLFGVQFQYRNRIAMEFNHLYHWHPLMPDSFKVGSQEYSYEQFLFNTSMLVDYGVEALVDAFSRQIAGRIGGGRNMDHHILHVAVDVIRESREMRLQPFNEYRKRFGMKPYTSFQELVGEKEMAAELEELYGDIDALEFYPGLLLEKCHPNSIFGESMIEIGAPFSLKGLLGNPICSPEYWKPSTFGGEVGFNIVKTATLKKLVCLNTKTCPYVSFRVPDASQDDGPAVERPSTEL
Description: In vitro inhibition of the production of PGE-2 in arachidonic acid stimulated chinese hamster ovary (CHO) cells transfected with human cyclooxygenase-1

[6] = organism: Rattus norvegicus; assay: animal or person; details: read-out: Inhibition
Description: Percentage inhibition against carrageenan induced rat paw edema assay was determined at a dose of 10 mg/Kg

[7] = Maximum concentration in rats at 1 hr was determined when dosed at 20 mg/Kg perorally; format: ADME, organism-based; set-up: dose 20 mg/Kg, route oral; details: rat, in vivo, po
[8] = target: T2, Prostaglandin G/H synthase 1; assay: In vivo ability to inhibit cyclooxygenase-1 enzyme in human whole blood was determined; format: organism-based
[9] = tested on: Rattus norvegicus; assay: GI tolerance when rats were dosed at 100 mg/kg for 10 days in GI permeability assay; High level of GI tolerance; format: functional, organism-based; set-up: dose 100 mg/kg

| SMILES | IC50 [3] | IC50 [5] | further results |
| --- | --- | --- | --- |
| CS(=O)(=O)c1ccc(-c2c(-c3ccc(F)cc3)nc3sccn23)cc1 | 0.014 µM | > 50 µM | IC50 [1]: 25 µM; IC50 [2]: 0.4 µM; ED50 [4]: 5 mg/kg |
| CS(=O)(=O)c1ccc(-c2c(-c3ccc(Cl)cc3)nc3sc(Cl)c(Cl)n23)cc1 | 3.6 µM | > 50 µM | – |
| CS(=O)(=O)c1ccc(-c2nc3sccn3c2-c2ccccc2)cc1 | 3.21 µM | > 50 µM | – |
| CS(=O)(=O)c1ccc(-c2c(-c3ccccc3)nc3scc(CC(=O)O)n23)cc1 | > 5 µM | – | – |
| CS(=O)(=O)c1ccc(-c2c(-c3ccc(Cl)cc3)nc3sc(Cl)cn23)cc1 | 0.016 µM | > 50 µM | – |
| Cc1cn2c(-c3ccc(S(C)(=O)=O)cc3)c(-c3ccccc3)nc2s1 | 0.012 µM | > 50 µM | IC50 [2]: 17.5 µM |
| Cc1sc2nc(-c3ccc(S(C)(=O)=O)cc3)c(-c3ccccc3)n2c1C | > 5 µM | > 50 µM | – |
| Cc1csc2nc(-c3ccccc3)c(-c3ccc(S(C)(=O)=O)cc3)n12 | 3 µM | > 50 µM | – |
| Cc1csc2nc(-c3ccc(S(C)(=O)=O)cc3)c(-c3ccccc3)n12 | 1 µM | > 50 µM | – |
| CSc1ccc(-c2nc3sccn3c2-c2ccccc2)cc1 | 5 µM | 0.078 µM | – |
| CSc1ccc(-c2c(-c3ccccc3)nc3sccn23)cc1 | 0.42 µM | 0.32 µM | – |
| CS(=O)(=O)c1ccc(-c2cc(Br)sc2-c2ccc(F)cc2)cc1 [DUP-697] | – | – | inhibition in vivo at 10 mg/kg [6]: 57% |
| CS(=O)(=O)c1ccc(-c2c(-c3ccccc3)nc3sccn23)cc1 | 0.016 µM | > 50 µM | Cmax [7]: 1000 nM; IC50 [2]: 0.9 µM; IC50 [8]: > 30 µM; GI tolerance [9]: High level of GI tolerance; ED50 [4]: 2 mg/kg |
| Cc1sc2nc(-c3ccccc3)c(-c3ccc(S(C)(=O)=O)cc3)n2c1C | 5 µM | > 50 µM | – |
| CS(=O)(=O)c1ccc(-c2nc3sc4ccccc4n3c2-c2ccccc2)cc1 | > 5 µM | > 50 µM | – |
| CCOC(=O)Cc1csc2nc(-c3ccccc3)c(-c3ccc(S(C)(=O)=O)cc3)n12 | 0.9 µM | – | – |
| Cc1cn2c(-c3ccccc3)c(-c3ccc(S(C)(=O)=O)cc3)nc2s1 | 0.14 µM | > 50 µM | – |
| CS(=O)(=O)c1ccc(-c2c(-c3ccc(F)c(F)c3)nc3sccn23)cc1 | 0.012 µM | > 50 µM | IC50 [2]: 2.2 µM |
| CS(=O)(=O)c1ccc(-c2c(-c3ccccc3)nc3sc4ccccc4n23)cc1 | > 5 µM | > 50 µM | – |
